Broadly, the IC50 is the concentration at which inhibition is half-maximal. Usually Km stands for the concentration of substrate that gives half-maximal velocity.

Residue numbers refer to the chain shown, from its start. Values joined by “and” are separate entries in the source; they are usually repeats but may differ in a detail not shown here. Equal values may be shown once. Read-outs that look alike come from different tables or passages of the source.

The values below come from article PMC5054527, “Mechanism of high affinity inhibition of the human urate transporter URAT1” (Scientific Reports, 2016).

The target in assay [1] is T1, r-Y365F/M481I rURAT1 double point mutant (Rattus norvegicus, UniProt Q3ZAV1, M481I/Y365F).
T1 construct: hURAT1 and rURAT1 are 553 amino acid proteins with 12 transmembrane segments; expressed in transfected cells; host or cells: HEK-293T
The experiment in a line: URAT1 uric acid transport activity assay. The class given is cell-based. In a few lines: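 Readout: 14C-uric acid uptake (100 μM, 10 min) in cells transiently transfected one day earlier with mutant rURAT1. Serially diluted inhibitors were added 5 min before substrate. Triplicate points, four-parameter logistic fit for IC50.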

Assay [2] relates to rURAT1. Set-up: method as in PMID 21074513. The note with it: cited from earlier work.
The target in assay [3] is T2, h-F365Y hURAT1 point mutant (Homo sapiens, UniProt Q96S37, F365Y).
T2 sequence (Q96S37 1-553 F365Y): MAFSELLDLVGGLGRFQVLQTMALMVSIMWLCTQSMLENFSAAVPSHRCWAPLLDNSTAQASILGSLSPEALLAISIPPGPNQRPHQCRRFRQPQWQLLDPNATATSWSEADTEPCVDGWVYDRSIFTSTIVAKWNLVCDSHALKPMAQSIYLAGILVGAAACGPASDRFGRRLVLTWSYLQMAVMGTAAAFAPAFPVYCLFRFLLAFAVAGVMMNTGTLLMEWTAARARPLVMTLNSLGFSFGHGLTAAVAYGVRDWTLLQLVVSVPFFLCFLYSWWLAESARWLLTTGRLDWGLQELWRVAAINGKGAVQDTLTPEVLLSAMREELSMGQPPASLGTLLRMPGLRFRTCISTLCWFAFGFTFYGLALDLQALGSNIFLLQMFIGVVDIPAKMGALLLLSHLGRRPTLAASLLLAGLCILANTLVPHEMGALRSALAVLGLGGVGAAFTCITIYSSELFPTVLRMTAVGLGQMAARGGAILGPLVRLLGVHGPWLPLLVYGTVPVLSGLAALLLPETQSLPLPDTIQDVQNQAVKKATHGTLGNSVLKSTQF
The experiment in a line: URAT1 uric acid transport activity assay. The class given is cell-based. Conditions: for fold reduced affinity of h-F365Y compared to hURAT1: from IC50 values; for IC50: h-F365Y, 100 μM 14C-uric acid.

Assay [4] addresses T3, h-M29L hURAT1 point mutant (Homo sapiens, UniProt Q96S37, M29L).
T3 construct: expressed in transfected cells; host or cells: HEK-293T
Nature of the assay: URAT1 uric acid transport activity assay. The note with it: HEPES pH 7.3, 100 μM 14C-uric acid. The class given is cell-based.

Assay [5] deals with T4, h-M474V hURAT1 point mutant (Homo sapiens, UniProt Q96S37, M474V).
T4 construct: expressed in transfected cells; host or cells: HEK-293T
The experiment in a line: URAT1 uric acid transport activity assay. It counts as cell-based. The note with it: HEPES pH 7.3, 100 μM 14C-uric acid.

Assay [6] deals with T5, h-S35N hURAT1 point mutant (Homo sapiens, UniProt Q96S37, S35N).
T5 sequence (Q96S37 1-553 S35N): T2 sequence (Q96S37 1-553 F365Y) with S35N, Y365F
Nature of the assay: URAT1 uric acid transport activity assay. The class given is cell-based. The note with it: for fold reduced sensitivity/affinity of h-S35N compared to hURAT1: from IC50 values; for IC50: h-S35N, 100 μM 14C-uric acid.

Assay [7] concerns the target T6, human URAT1 (hURAT1 WT) (Homo sapiens, UniProt Q96S37).
T6 sequence (Q96S37 1-553): T2 sequence (Q96S37 1-553 F365Y) with Y365F
The experiment in a line: URAT1 uric acid transport activity assay. It counts as cell-based. Conditions: for IC50: hURAT1 WT, 100 μM 14C-uric acid; for fold higher affinity (potency) of hURAT1 compared to rURAT1: ratio of IC50 values, rURAT1 vs hURAT1.

T3 sequence (Q96S37 whole entry M29L): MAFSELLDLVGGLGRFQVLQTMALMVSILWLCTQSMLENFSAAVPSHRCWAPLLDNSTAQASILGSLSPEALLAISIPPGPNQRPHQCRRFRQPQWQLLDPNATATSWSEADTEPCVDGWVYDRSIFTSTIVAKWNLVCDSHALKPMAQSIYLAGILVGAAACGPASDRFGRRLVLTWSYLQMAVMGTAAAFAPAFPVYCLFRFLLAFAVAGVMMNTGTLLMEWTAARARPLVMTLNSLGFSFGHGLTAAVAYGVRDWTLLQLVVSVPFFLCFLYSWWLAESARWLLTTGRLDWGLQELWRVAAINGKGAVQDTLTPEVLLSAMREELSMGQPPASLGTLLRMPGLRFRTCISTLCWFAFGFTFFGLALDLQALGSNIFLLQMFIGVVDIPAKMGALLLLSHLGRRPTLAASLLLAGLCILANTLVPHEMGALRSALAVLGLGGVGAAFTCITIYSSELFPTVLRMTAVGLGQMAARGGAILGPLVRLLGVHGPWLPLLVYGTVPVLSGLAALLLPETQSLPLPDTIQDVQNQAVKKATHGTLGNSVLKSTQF
T1 sequence (Q3ZAV1 whole entry Y365F/M481I): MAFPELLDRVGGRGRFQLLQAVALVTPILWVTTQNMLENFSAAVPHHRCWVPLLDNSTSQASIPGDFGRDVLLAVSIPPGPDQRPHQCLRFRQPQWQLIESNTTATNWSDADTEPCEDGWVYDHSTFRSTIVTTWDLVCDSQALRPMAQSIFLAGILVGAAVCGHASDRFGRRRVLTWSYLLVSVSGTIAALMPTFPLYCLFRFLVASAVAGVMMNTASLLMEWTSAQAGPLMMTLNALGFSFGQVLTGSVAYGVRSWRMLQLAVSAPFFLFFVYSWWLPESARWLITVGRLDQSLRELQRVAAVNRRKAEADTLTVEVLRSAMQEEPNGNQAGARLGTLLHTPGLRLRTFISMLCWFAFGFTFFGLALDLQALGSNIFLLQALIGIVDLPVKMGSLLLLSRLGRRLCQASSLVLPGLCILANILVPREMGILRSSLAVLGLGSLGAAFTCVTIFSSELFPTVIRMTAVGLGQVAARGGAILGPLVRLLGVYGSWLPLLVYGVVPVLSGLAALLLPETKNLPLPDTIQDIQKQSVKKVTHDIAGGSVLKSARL
T4 sequence (Q96S37 whole entry M474V): as the sequence (Q96S37 whole entry M29L) above, with L29M, M474V counted along it

For the compound `CCc1oc2ccccc2c1C(=O)c1cc(Br)c(O)c(Br)c1` [benzbromarone], the IC50 was 3.5 ± 0.39 µM in assay [1] and 11.9 µM in assay [2].

With `O=C1C(CC[S+]([O-])c2ccccc2)C(=O)N(c2ccccc2)N1c1ccccc1` (stereo not drawn) [sulfinpyrazone], the “fold reduced affinity of h-F365Y compared to hURAT1” value in assay [3] is reported as 5 fold. Besides, the IC50 in assay [3] (HEPES pH 7.3) was 163 ± 13 µM; in assay [4] it was 8.5 µM and 9 µM; in assay [5] it was 30 ± 3.4 µM; in assay [6] (HEPES pH 7.3) it was 233 ± 54 µM; in assay [7] (HEPES pH 7.3), 32 µM; in assay [1] (r-Y365F/M481I, HEPES pH 7.3, 100 μM 14C-uric acid, read-out: IC50 (uric acid transport)), 138 ± 25 µM. The “fold reduced sensitivity/affinity of h-S35N compared to hURAT1” value in assay [6] was 7 fold. Also, in assay [7], the “fold higher affinity (potency) of hURAT1 compared to rURAT1” value stood at 21 fold.

As for `O=c1[nH]c(=O)c2[nH]c(=O)[nH]c2[nH]1` [uric acid], the “fold reduced affinity of h-F365Y compared to hURAT1” value in assay [3] is on record as 2.5 fold. Moreover, the results for the IC50 in assay [3] (MES pH 5.5), in assay [6] (MES pH 5.5) and in assay [7] (MES pH 5.5) were 609 µM, 507 µM and 246 µM, respectively. Also, the “fold reduced sensitivity/affinity of h-S35N compared to hURAT1” value in assay [6] stood at 2.1 fold. The “fold higher affinity (potency) of hURAT1 compared to rURAT1” value in assay [7] is “greater than 10 fold”. Further, in assay [2] (read-out: Km for the substrate urate), the Km is 1770 µM.
